“Also recorded” adds a separate entry of the source. Like-named read-outs stand apart in the source and are kept apart here.

We go through 2 molecules from paper PMC10794345, “Analysis of vascular disruption in zebrafish embryos as an endpoint to predict developmental toxicity” (Archives of Toxicology, 2023).

Data set [1] has as its system zebrafish embryos (wild-type strain OBI/WIK). Description: ISV inhibition (angiogenesis) by video subtraction in wildtype zebrafish embryos. Type of data set: in vivo, zebrafish (D. rerio). The following applies: for IC50: Danio rerio, ± 95% confidence intervals, read-out: IC50 of ISV inhibition. On the procedure: A wild-type adult zebrafish strain (D. rerio, strain OBI/WIK, generation F3), originating from an in-house cross of zebrafish strains UFZ-OBI and WIK, was used for all experiments. The Tg(kdr:EGFP) strain was kindly provided by the University of Jena. Fish were fed twice daily with dry food (SDS-400, Special Diets Services, Essex England) and once daily with Artemia sp. […] Spawning trays were inserted 4–6 h before the end of the light cycle. The following day, spawning was initiated by the onset of light and eggs were collected within 1 h. Exposure in all experiment was ceased at 96 hpf.
(§1) Exposure was conducted in rectangular 96-well microplates (Clear Polystyrene, flat bottom, Uniplate, Whatman, GE Healthcare) covered by a lid with a test volume of 400 µL of exposure media. For each replicate one embryo per well and 16 wells per concentration were assessed. Experiments were performed with at least two replicates on independent days and breeding.
To determine the number of ISVs in the trunk region, high-resolution images of 96 hpf-old zebrafish embryos were recorded using a Leica DM6B-Z microscope (Leica, Wetzlar, Germany) attached to the VAST imaging system, and a camera (Leica DFC9000 sCMOS, objective: HC APO L U-V-I 20x/0.50 WATER UV). A series of 20 images with a frame rate of 20 images per second and a 2 × 2 pixel binning was recorded in autofocus mode for each embryo.
A series of MATLAB scripts (Supplement File ‘Workflow 3.m’ and ‘Workflow 4.m’) was used to convert the image series into a video and to visualize the blood vessel by applying a video subtraction approach (Figure SI1). Briefly, each video frame was subtracted from the average image of the whole image sequence and converted to a binary image by applying a Gaussian blur (σ = 5) and a threshold of 0.025 to obtain optimal contrast in binary images. Subsequently, the sum of all binary images was calculated. Due to movement of the blood cells the subtraction approach removed all parts from the image which were not moving resulting in an image of the blood vessels. This binary image of the blood vessel network in the zebrafish embryo tail was then processed with the FishInspector annotation software (version 1.70). […] The number of ISVs was obtained by application of a KNIME workflow to FishInspector annotation files. Subsequently concentration–response analysis was conducted using a KNIME workflow. The coefficient of variation (CV) of controls was calculated for both the subtraction and the fluorescence-based method by dividing the standard deviation of individual embryos with the control mean: CVControl=SD/Mean.
The assessment of lethality and morphological features was based on the percentage of embryos affected. Therefore, morphological endpoints were dichotomized, i.e. feature metrics were converted to the percentage of embryos deviating from controls. An embryo was considered to deviate when it was outside 1.5-fold of the standard deviation range of the mean of the control group. The control mean was determined by pooling control embryos across all experiments (n = 160) (available at git.ufz.de). For heart rate and angiogenesis (number of ISVs) the analysis was based on normalized values, i.e. for each experiment the values of the treatment were divided by the control value. The experiments were designed to calculate effect concentrations based on modelled curve fits. Different concentrations were used in at least two independent replicates, with means of each replicate based on the exposure of 16 different embryos per concentrations. Effect concentration were only modeled when three conditions were met. […] (2) The Akaike information criterion (AIC) for the log-logistic model was lower than the AIC for a linear model with slope 0 (lower p values for the letter would indicate that there is no trend in the data).

A short description of data set [2]: Lethality of zebrafish embryos at 96 hpf. Type of data set: in vivo, zebrafish (D. rerio). The following applies: OBI/WIK wild-type, zebrafish, in vivo, other: immersion of embryos in exposure media, 3–96 hpf exposure; ± 95% confidence intervals. On the procedure:
as §1, with “Fertilized and normally developed embryos were selected according to Kimmel et al. ([1995]) with a dissection microscope (Olympus SZx7-ILLT) at 1 hpf. Depending on experiment, exposure was started within 2–3 h post-fertilization (16–128 cell stages) or at 24 hpf. Exposure” for “Exposure”
(§2) Concentration–response curves were fitted for lethality, heart rate, morphological features as previously described (Teixidó et al. [2019], [2022]). The assessment of lethality and morphological features was based on the percentage of embryos affected. Therefore, morphological endpoints were dichotomized, i.e. feature metrics were converted to the percentage of embryos deviating from controls. An embryo was considered to deviate when it was outside 1.5-fold of the standard deviation range of the mean of the control group. The control mean was determined by pooling control embryos across all experiments (n = 160) (available at git.ufz.de). For heart rate and angiogenesis (number of ISVs) the analysis was based on normalized values, i.e. for each experiment the values of the treatment were divided by the control value. The experiments were designed to calculate effect concentrations based on modelled curve fits. Different concentrations were used in at least two independent replicates, with means of each replicate based on the exposure of 16 different embryos per concentrations. Effect concentration were only modeled when three conditions were met. (1) The Tukey trend test based on the R package "tukeytrend" (Schaarschmidt et al. [2022]) was deriving a maximum p-value of 0.05. (2) The Akaike information criterion (AIC) for the log-logistic model was lower than the AIC for a linear model with slope 0 (lower p values for the letter would indicate that there is no trend in the data). (3) We calculated effect concentrations only if at least 30% of embryos for that endpoint were affected in at least one exposure concentration of (for normalized data) a reduction or increase by 30% was observed.

Data set [3] concerns zebrafish embryos (wild-type strain OBI/WIK). Briefly: Lethality of zebrafish embryos at 96 hpf. Type of data set: in vivo, zebrafish (D. rerio). The following applies: embryos exposed from 24 hpf, compared to exposure from 3 hpf. As for the experimental part: as §1, with “Fertilized and normally developed embryos were selected according to Kimmel et al. ([1995]) with a dissection microscope (Olympus SZx7-ILLT) at 1 hpf. Depending on experiment, exposure was started within 2–3 h post-fertilization (16–128 cell stages) or at 24 hpf. Exposure” for “Exposure”
as §2

In data set [4] the test system is early life stage zebrafish. The following applies: ref Tal et al. [2014]; read-out: EC50 for decreased ISV length; cited from earlier work.
Data set [5] deals with zebrafish embryos (wild-type strain OBI/WIK). Briefly: Morphological features and heart rate by automated imaging (VAST/FishInspector) at 96 hpf. Particulars: 96 hpf; listed as VPA. The data set is classed as in vivo, zebrafish (D. rerio). On the procedure:
Automated imaging of zebrafish developmental phenotypes was conducted with the VAST BioImager (Union Biometrica, Gees, Belgium (Pardo-Martin et al. [2010]; Pulak [2016])) equipped with a large particle sampler (LP sampler, Union Biometrica). Lateral and dorsoventral images were obtained at 10 µm resolution at 96 hpf. Prior to imaging, all embryos were anesthetized by adding 20 µl tricaine solution ([…] tricaine, TRIS 26 mM, pH 7.5 ± 0.1) to each well of the microplate. Images were processed with an amended version (1.70, available via https://codebase.helmholtz.cloud/ufz/tb3-cite/biotox/FishInspector) of the FishInspector imaging software (Teixidó et al. [2019]). The FishInspector software allows to automatically annotate morphological features including body contour, eye, lower mouth tip, pericard, otoliths, notochord, swimbladder, and yolk and to calculate diverse metrics such as feature length, size, curvature indices, or angle between feature-connecting lines. In contrast to the previously published version, FishInspector 1.70 detects morphological features based on a deep learning approach using the Matlab Neural Network Toolbox and Matlab Image Processing Toolbox (Mathworks, Natick, […]). In addition, metric calculation was included into the software, and meta information such as test compound, exposure window or test concentration was associated to each image using a microplate layout file. To facilitate training of the models, two additional programs were generated in Matlab including FishTrainer 0.9 (for training of semantic segmentation models of structural features) and FishClassificator 0.9 (for training of position classes to be used in automated flipping of images) available via same repository as FishInspector software. For image training, image size was adjusted to 450 × 300 pixel to reduce computing time. This resolution was sufficient to detect the selected features (data not shown). For training of the deep learning models, approximately 3000 previously annotated images (Teixidó et al. [2022]) were used. The automated annotations were corrected by the user in the event that they were not adequately detecting visible structures. User-bias was avoided by a blinded assessment of images.
FishInspector provided a JSON file corresponding to each image file containing the coordinates of all features and the applied smoothing factor. All images and videos used for this publication can be found at the BioImage Archive S-BIAD954 (https://www.ebi.ac.uk/biostudies/bioimages/studies/S-BIAD954). For each image, a csv file was generated containing calculated metrics. The software automatically provides a summary table containing metrics r of individual embryos. […] The analyzed file includes endpoint names based on the FishInspector software. […]

By IC50 is commonly meant the concentration needed to halve the response being measured. As a reminder, the LC50 is the concentration lethal to half of the exposed cells or organisms. A lower LC50 goes with greater toxicity. For orientation: EC50 means the concentration at which the effect is half-maximal. Take `Clc1ccc(Nc2nnc(Cc3ccncc3)c3ccccc23)cc1` [PTK787]: the IC50 in data set [1] (3–96 hpf exposure) worked out at 90 ± 40 nM; in data set [1] (24–96 hpf exposure), 140 ± 30 nM. In addition, in data set [2], the LC50 was found to be 680 ± 510 nM. Besides, the “Mortality (in words)” value in data set [3] is “no”. In addition, the concentration for a half-maximal effect (EC50) in data set [4] was 170 nM.

Take `CCCC(CCC)C(=O)O` [Valproic acid]: the “Effect on ISV formation (in words)” value in data set [1] (tested concentration range up to 800 µM, negative control, listed as VPA) is “No effect; also recorded: no inhibition of ISVs formation was observed”. For the same molecule, the “Morphological malformations (in words)” value in data set [5] is “craniofacial malformations were observed; also recorded: changes in head and jaw structures”.
